{"source": "patent EP2308983B1", "about": "“Cytochrome P450 from Rhizopus oryzae and uses thereof” (Univerza v Ljubljani, priority 2009, dated 2011)", "key": {"CYP509C12 [1]": {"test_system": "CYP509C12", "assay": "Steroid hydroxylation assay of recombinant S. pombe strain SpoC12 expressing CYP509C12 (whole-cell biotransformation, HPLC and LC/MS)", "conditions": "for efficiency of total steroid hydroxylation: 28 °C", "protocol": "S. pombe cells, grown as described in the previous section, were washed with EMM, centrifuged (4000 × g, 5 min, 4 °C) and suspended in 10 mL of fresh medium to a final density of 10^8 cells mL^-1. […] 500 µL of SpoC12 yeast culture was taken after different time periods and the steroids were extracted twice with chloroform, evaporated, solved in acetonitrile, and analyzed by HPLC. The steroid extracts from whole cell cultures growing for 24 h were analyzed by LC/MS.\nReverse phase HPLC using an isocratic solvent system of acetonitrile:H2O 60:40 (v/v) as mobile phase, flow rate […], was carried out on a WellChrom system (Knauer, Berlin, Germany) composed of an auto-sampler AS-2050 plus, Mini-Star K-500 pump, Jet Stream II Plus thermostat, and an UV-detector WellChrom Spectro Photometer K-2600, equipped with a C18 ODS Hypersil 250 x 4.6 mm, 5 µm particle column from Thermo® (Waltham, MA, USA). Steroids were detected at 240 nm and the peak area calculation was done using the EuroChrom 2000 software (Knauer). Steroid standards were used to identify the HPLC peaks and to construct calibration curves. Concentrations of steroids were determined using calibration curves in the range of 0.05 -1 mg mL^-1 of each analyte. […] The peak area of a specific steroid at each time point was assessed relative to the total area of identified steroid peaks.\nMass measurements were run on a hybrid quadruple time of flight mass spectrometer (Q-TOF) provided with an orthogonal Z-spray ESI interface (Waters Micromass, Manchester, UK). Mass spectrometer was interfaced to an ultra performance liquid chromatography (UPLC) system based on a Waters Acquity (Waters, Milford, USA) binary pump with a BEH C-18 column (1.7 µm, 50 mm x 2.1 mm i.d.). The mobile phases consisted of water and acetonitrile with mixture of 0.1 % of formic acid in water. Compressed nitrogen (99.999 %, Messer, Slovenia) was used as both the drying and the nebulizing gas. The nebulizer gas flow rate was set to approximately 20 L h^-1 and the desolvation gas flow rate to 600 L h^-1. A cone voltage of 30 V and a capillary voltage of 2.7 kV were used in positive ion mode. The desolvation temperature was set to 250 °C and the source temperature to 150 °C. The mass resolution of approximately 9500 was used for determination of elemental composition with TOF mass spectrometer. Full width of the peak was measured at half of its maximum height. MS were acquired in centroid mode over an m/z range of 50-1000 in scan time 0.25 s and inter scan time 0.05 s. The data station operating software was Mass Lynx v 4.1 (Micromass, Manchester)."}, "CYP509C12 [2]": {"test_system": "CYP509C12", "assay": "Real time RT PCR of P450 gene expression in fungus exposed to progesterone", "type": "cell-based, R. oryzae", "conditions": "300 µM progesterone, up-regulated within 20 minutes, Wilcoxon's test p value < 0.05", "experimental": "(§1) Samples of 2 µg of RNA were treated with DNAse 1 and reverse-transcribed with random hexamer primers using RevertAid™ H Minus First Strand cDNA Synthesis Kit (Fermentas, Canada) following the manufacturer's instructions. Based on multiple alignments of deduced P450 families, the amplification of the cDNA of 31 P450 genes was carried out under conventional conditions using gene-specific primers which were designed with Primer Express (Applied Biosystems, CA, USA, (AB)). The specificity of each primer pair was verified by sequencing of amplified genomic fragments (Sequiserve, Vaterstetten, Germany).\n(§2) Quantitative RT PCR using SYBR green Mastermix (AB) was performed for 9 selected genes in an ABI Prism 7500 Real Time System (AB) according to the manufacturer's instructions. Following amplification, a dissociation curve was performed on all PCR products to additionally ensure their specificity. The relative quantity of cDNA was calculated with the standard curve method and calibrated with a R. oryzae housekeeping Rossb1 gene (Broad ref. RO3G_01864.1), a homologue of the Saccharomyces cerevisiae ribosome-associated Hsp70 (SSB1), whose expression is not affected by steroid treatment. The expression levels of each P450 gene were normalized to those in the untreated control. The statistical significance of up- or down-regulation was evaluated using Wilcoxon's test with a cutoff p-value < 0.05."}, "CYP509C10": {"test_system": "CYP509C10", "conditions": "300 µM progesterone, up-regulated within 20 minutes, Wilcoxon's test p value < 0.05", "experimental": "as §1, §2"}, "CYP5204A1": {"test_system": "CYP5204A1", "assay": "Real time RT PCR of P450 gene expression in fungus exposed to progesterone", "type": "cell-based, R. oryzae", "conditions": "300 µM progesterone, up-regulated within 20 minutes, Wilcoxon's test p value < 0.05", "experimental": "as §1, §2"}, "[3]": {"conditions": "SpoC12, 300 µM steroid, 24 h, LC/MS"}}}
{"compound": "C[C@]12CC[C@H]3[C@@H](CCC4=CC(=O)CC[C@@]43C)[C@@H]1CC[C@@H]2O", "note": "[testosterone]", "values": [{"measurement": "efficiency of total steroid hydroxylation", "setting": "CYP509C12 [1]; [3]", "value": 73, "unit": "%"}]}
{"compound": "C[C@]12CCC(=O)C=C1CC[C@@H]1[C@@H]2CC[C@@]2(C)[C@H]1CC[C@]2(O)C(=O)CO", "note": "[RSS, 11-deoxycortisol]", "values": [{"measurement": "efficiency of total steroid hydroxylation", "setting": "CYP509C12 [1]; [3]", "value": 30, "unit": "%"}, {"measurement": "share of 6β-hydroxylated derivative in total hydroxylated products", "setting": "CYP509C12 [1]; [3]", "value": "more than half"}]}
{"compound": "CC(=O)[C@H]1CC[C@H]2[C@@H]3CCC4=CC(=O)CC[C@]4(C)[C@H]3CC[C@]12C", "note": "[progesterone]", "values": [{"measurement": "slower rate of progesterone hydroxylation in recombinant fission yeast compared to R. oryzae cultures", "setting": "CYP509C12 [1]; SpoC12 versus R. oryzae cultures", "value": 10, "unit": "fold"}, {"measurement": "transcript amount increase compared to the control", "setting": "CYP509C12 [2]", "value": "at least 32 fold"}, {"measurement": "transcript amount increase compared to the control", "setting": "CYP509C10", "value": "at least 32 fold"}, {"measurement": "transcript amount increase compared to the control", "setting": "CYP5204A1", "value": "at least 32 fold"}]}
{"compound": "C[C@]12CC[C@H]3[C@@H](CCC4=CC(=O)CC[C@@]43C)[C@@H]1CC[C@@H]2C(=O)CO", "note": "[DOC, 11-deoxycorticosterone]", "values": [{"measurement": "efficiency of total steroid hydroxylation", "setting": "CYP509C12 [1]; [3]", "value": 96, "unit": "%"}]}
